Molecules are shown by their SMILES. Like-named read-outs stand apart in the source and are kept apart here.

Results on one compound are retold here after paper PMC5531494, “Target specificity, in vivo pharmacokinetics, and efficacy of the putative STAT3 inhibitor LY5 in osteosarcoma, Ewing's sarcoma, and rhabdomyosarcoma” (PLoS ONE, 2017).

Series [1] is described as follows: PK in normal beagle dogs, oral capsules of LY5 powder. The format is in vivo. Conditions: plasma, fasted; for AUC(0-inf): read-out: AUC inf-obs. The protocol:
LY5 was evaluated in two normal purpose-bred beagle dogs (female 8.8 kg; male 11.2 kg) receiving a single dose of 1mg/kg LY5 IV then orally by gavage 7 days later to establish the PK profile and assess the spectrum of clinical toxicities associated with LY5 administration. The oral dosing was repeated in the fed and fasted state. The starting dose was determined based on allometric scaling from the maximal tolerated dose studies performed in mice. Dogs were washed out for 30 days, and then given a dose of 25 mg in a capsule orally, followed by a 50 mg capsule dose 14 days later. Full PK sampling was performed over 24 hours following each dose of LY5. The dogs received LY5 and were used for the PK analysis but were not euthanized upon conclusion of the study.
The liquid chromatography-mass spectrometry system utilized for these analyses consisted of a Dionex Ultimate 3000 RSLCnano High Performance Liquid Chromatography system and a Thermo Finnigan Quantum Ultras EMR mass spectrometer with an electrospray ionization source. Positive ionization mode was used for both LY5 and the internal standard, hesperetin. Plasma samples were collected and analyzed by the OSU James Comprehensive Cancer Center Pharmacoanalytical Shared Resource. Pharsight Phoenix WinNonlin software using non-compartmental analysis was used to generate PK parameters including maximum plasma concentration (Cmax), amount of time that drug is present at Cmax (Tmax), and total area under the curve (AUC). AUC all and AUC last were calculated by linear trapezoidal method of concentration-time curve up to the last measured point. AUC inf-obs was calculated by log-linear extrapolation of the terminal phase beyond the last collection time. Bioavailability (F) was calculated for IP and PO administration routes. Plasma stability and liver microsomal stability of LY5 were also assessed through this shared resource.

The next series addresses STAT3 (Homo sapiens, UniProt P40763). The series can be described thus: STAT3 phosphorylation in OS-1 PDX tumors. Also on record: from tissue; host or cells: OS-17-luc lung metastases and OS-1 subcutaneous PDX tumours in C.B-17 scid mice. Conditions: 40 mg/kg twice daily, tumors harvested 2 hrs after final drug administration. It counts as in vivo, mice. The protocol:
To further examine the efficacy of LY5, we administered LY5 using subcutaneous PDX models of RMS (RH10 and RH36) and OS (OS-17 and OS-1). RH10, RH36 and OS-1 were derived from tissue explants, therefore no corresponding cell lines exist. Tumors were harvested 2 hrs after final drug administration. […] In addition, STAT3 phosphorylation was not observed in control or treated tumor derived from OS-17, and inhibition of STAT3 phosphorylation was not observed in OS-1 PDX models treated with 40 mg/kg twice daily.

The target in the next series is T1, STAT4 (Homo sapiens, UniProt Q14765).
T1 construct: endogenous in cells; host or cells: SJSA
The series is described as follows: Cytokine-induced STAT4 phosphorylation in SJSA cells, Western blot. The format is cell-based. Conditions: induced by IFN-γ, IFN-α, or IL-4. The protocol:
Cell lysis, protein isolation and immunoblotting were performed as described previously. Twenty micrograms of protein were resolved using 4–12% Bis-Tris polyacrylamide gels. Gels were transferred to PVDF membranes and subjected to blocking and incubation with primary and secondary antibodies. The primary antibodies used in this study included: phospho-STAT3 (Tyr705, Cell Signaling, Boston, MA and Abcam, Cambridge, MA), total STAT3 (Cell Signaling and Abcam), phospho-STAT1 (Cell Signaling), total STAT1 (Cell Signaling), phospho-STAT2 (Cell Signaling), phospho-STAT4 (Cell Signaling), phospho-STAT6 (Cell Signaling), and GAPDH (Cell Signaling). Protein bands were detected using Western Lightning ® Plus Enhanced Chemiluminescence substrate (Perkin Elmer, Waltham, MA) and HyBlot CL ® Autoradiography film (Denville Scientific, Holliston, MA). The cytokines used in this study included: interferon gamma (IFN-γ, Cell Signaling), interferon alpha (IFN-α, Cell Signaling), interleukin-4 (IL-4, Cell Signaling), interleukin-6 (IL-6, Cell Signaling), and oncostatin M (OSM, Cell Signaling).
Fig 1 LY5 inhibits pSTAT3 in sarcoma cell lines. (A) The tumor cell lines RH30, EW8, and RD were treated with increasing concentrations of LY5 for 30 minutes. Cell lysates were collected for Western blotting of p-STAT3, total STAT3, and GAPDH. GAPDH was used as loading control. […]

The test system of series [2] is 96 human protein or lipid kinases. The series is described as follows: KINOMESCAN binding profile. The protocol: To determine the specificity of STAT blockade, we asked whether LY5 affected the phosphorylation of other family members including STAT1, STAT2, STAT4, and STAT6 [30–32]. […] To further define any potential off-target effects, we profiled the direct (steric) or indirect (allosteric) binding of LY5 to the binding sites of 96 human protein or lipid kinases (KINOMESCAN, www.kinomescan.com).
Supplementary file pone.0181885.s001.pdf: S1 Fig Kinomescan results for LY5. […] At 5 μM LY5 (B), only interaction with PLK3 was identified, mapped S-score (35) = 0.01. (PDF) Click here for additional data file.

The mark [3] stands for this setting: female, Dog #2, 25 mg oral capsule.
Setting [4] is: female, Dog #2, 50mg oral capsule.
Setting [5] is: male, Dog #1, 25 mg oral capsule.
Where [6] appears, read: male, Dog #1, 50mg oral capsule.

STAT3, sequence (P40763 whole entry): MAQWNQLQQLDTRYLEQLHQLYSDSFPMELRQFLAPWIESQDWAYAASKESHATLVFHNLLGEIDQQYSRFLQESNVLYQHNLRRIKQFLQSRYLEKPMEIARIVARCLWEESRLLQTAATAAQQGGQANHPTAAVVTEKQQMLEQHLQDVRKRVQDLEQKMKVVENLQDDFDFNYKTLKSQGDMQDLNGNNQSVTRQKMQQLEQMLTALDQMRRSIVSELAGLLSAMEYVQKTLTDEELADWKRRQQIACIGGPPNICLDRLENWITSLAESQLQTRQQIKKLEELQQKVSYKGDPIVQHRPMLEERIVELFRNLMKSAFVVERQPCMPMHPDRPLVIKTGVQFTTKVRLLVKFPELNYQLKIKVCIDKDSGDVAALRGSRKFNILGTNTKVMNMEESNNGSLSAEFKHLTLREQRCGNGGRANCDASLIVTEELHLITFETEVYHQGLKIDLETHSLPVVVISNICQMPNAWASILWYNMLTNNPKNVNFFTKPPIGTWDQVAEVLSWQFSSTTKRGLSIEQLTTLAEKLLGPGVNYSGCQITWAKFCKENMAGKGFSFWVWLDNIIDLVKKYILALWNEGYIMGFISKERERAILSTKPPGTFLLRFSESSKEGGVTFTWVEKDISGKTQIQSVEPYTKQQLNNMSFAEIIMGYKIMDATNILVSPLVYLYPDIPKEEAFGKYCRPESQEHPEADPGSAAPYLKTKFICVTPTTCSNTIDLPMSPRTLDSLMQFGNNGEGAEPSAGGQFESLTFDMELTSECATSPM
T1 sequence (Q14765 whole entry): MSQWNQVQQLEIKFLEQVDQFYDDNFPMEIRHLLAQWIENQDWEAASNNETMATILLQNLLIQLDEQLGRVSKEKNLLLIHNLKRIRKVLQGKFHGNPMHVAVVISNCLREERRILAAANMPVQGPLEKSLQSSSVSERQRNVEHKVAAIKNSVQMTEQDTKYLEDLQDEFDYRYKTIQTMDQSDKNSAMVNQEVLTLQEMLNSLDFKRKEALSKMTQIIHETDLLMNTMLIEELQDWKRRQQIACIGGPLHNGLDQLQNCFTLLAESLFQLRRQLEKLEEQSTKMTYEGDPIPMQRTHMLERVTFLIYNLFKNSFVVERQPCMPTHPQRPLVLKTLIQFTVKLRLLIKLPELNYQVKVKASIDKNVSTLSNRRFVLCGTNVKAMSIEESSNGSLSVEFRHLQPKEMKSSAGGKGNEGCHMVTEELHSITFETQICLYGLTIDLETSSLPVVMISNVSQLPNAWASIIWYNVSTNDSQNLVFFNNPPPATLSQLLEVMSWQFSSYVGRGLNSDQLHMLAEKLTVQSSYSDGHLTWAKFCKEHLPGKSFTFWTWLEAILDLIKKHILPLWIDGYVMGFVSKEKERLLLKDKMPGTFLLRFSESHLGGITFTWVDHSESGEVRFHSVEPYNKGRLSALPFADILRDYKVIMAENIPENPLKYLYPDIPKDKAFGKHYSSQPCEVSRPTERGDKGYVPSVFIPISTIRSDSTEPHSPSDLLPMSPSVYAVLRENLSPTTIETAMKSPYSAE

For `NS(=O)(=O)c1cccc2c1C(=O)C=C(Nc1cccnc1)C2=O` [LY5, 5,8-dioxo-6-(pyridin-3-ylamino)-5,8-dihydronaphthalene-1-sulfonamide], the AUC(0-t) in series [1] (setting [3]) came out at 2.51 µM·h; in series [1] (setting [4]), 5.93 µM·h; in series [1] (setting [5]), 2.62 µM·h; in series [1] (setting [6]), 2.92 µM·h. Further, the time to peak (Tmax) in series [1] (setting [3]) turned out to be 2 h; in series [1] (setting [4]), 4 h; in series [1] (setting [5]), 2 h; in series [1] (setting [6]), 3 h. Moreover, the AUC(0-inf) worked out at 2.53 µM·h in series [1] (setting [3]), 5.96 µM·h in series [1] (setting [4]), 2.69 µM·h in series [1] (setting [5]) and 2.97 µM·h in series [1] (setting [6]). In addition, the Cmax in series [1] (setting [5]) was determined as 230 nM; in series [1] (setting [6]) it was 840 nM; in series [1] (Dog #2, 25 mg oral capsule) it was 516 nM; in series [1] (Dog #2, 50mg oral capsule), 909 nM. Also, the “inhibition of STAT3 phosphorylation in tumors” value against STAT3 is listed as “not observed”. Moreover, the “phosphorylation of STAT4” value on STAT4 is “did not inhibit”. Also, the “binding to any of 96 kinases” value in series [2] (1 μM LY5) is on record as “no binding”. The “mapped S-score (35)” value in series [2] (1 μM LY5) is reported as 0; in series [2] (5 μM LY5), 0.01.
